Data from patent US20220315534A1, “BETA ADRENERGIC AGONIST AND METHODS OF USING THE SAME” (Curasen Therapeutics, Inc., priority 2019, published 2022).
Read-outs that look alike come from different tables or passages of the source.

Tests used:
[1] = molecular target: T1, β1-adrenergic receptor (B1-AR) (Homo sapiens, UniProt P08588); experiment: cAMP Gs dynamic HTRF assay, cells expressing β1-adrenergic receptor; format: cell-based
T1 construct: expressed in transfected cells
Protocol: (§1) cAMP homogeneous time-resolved fluorescence (HTRF): experimental methods. Compound efficacy is determined using the cAMP Gs dynamic HTRF assay (Cisbio, catalog #62AM4PEC) largely following the manufacturer's instructions, also detailed below.
(§2) Standard serial dilution curves are 10-point, 5-fold dilutions starting from a highest concentration of 10 μM. […] Assay plates are centrifuged at 500×g for 10 seconds. Compounds and IBMX are prepared at 2× final dose to compensate for addition of cells.
(§3) Cell preparation: 1× stimulation buffer, washing PBS (Dulbecco's phosphate-buffered saline, —Mg —Ca; Caisson Labs, catalog #PBL01), assay PBS (Dulbecco's phosphate-buffered saline, +Mg, +Ca; Caisson Labs, catalog #PBL02) and Versene (0.02% EDTA disodium salt solution in PBS without calcium or magnesium; Caisson Labs, catalog #EDL01) are pre-warmed to 37° C. Cells expressing beta-adrenergic receptor were washed in washing PBS to remove growth medium and then released from the surface by incubating with Versene for 5-10 minutes at 37° C. Cells are harvested using assay PBS, counted manually by hemocytometer or by an automated cell counter, pelleted by centrifugation (200×g, 5 minutes) and resuspended in 37° C. 1× stimulation buffer to a final density of […]. 5 μL of the suspended cell solution (7500 cell total) are added to all wells of the 384 well assay plate, the assay plate was covered with an Axygen® plate seal (Corning PCR-SP) and incubated in a humidified 37° C. environment supplemented with 5% CO2 for 30 minutes.
(§4) HTRF reagent addition, reading and data analysis: After 30 minutes of cell stimulation with test compound, the assay plates are centrifuged at 500×g for 10 seconds, and incubation was stopped with the addition of 5 μL cAMP-D2 acceptor, diluted 1:21 in detection and lysis buffer 2 (Cisbio 62CL2FDF) was added to all cells. Subsequently, 5 μL Anti-cAMP-Eu Donor, diluted 1:21 in detection and lysis buffer 2, was added to cells. Plates were sealed and reactions gently ‘vortexed’ at 900 rpm on a Heidolph Titramax 1000 for at least 30 minutes at room temperature. Plates are centrifuged again at 500×g for 10 seconds, and HTRF was measured using a Tecan Spark plate reader at 50 flashes per well. […] Potency estimates (EC50 and pEC50) are derived from the four-parameter nonlinear regression of the concentration-effect curve and an estimate of relative efficacy is determined by comparing the magnitude of the test compound HTRF signal window (min-max dose) with the signal window of the full agonist control, isoproterenol.

[2] = molecular target: T2, β2-adrenergic receptor (B2-AR) (Homo sapiens, UniProt P07550); experiment: cAMP Gs dynamic HTRF assay, cells expressing β2-adrenergic receptor; format: cell-based
T2 construct: expressed in transfected cells
Protocol: as §1, §2, §3, §4

[3] = CHO-K1 (HitHunter) cells, read-out: Average pEC50 [Receptor subtype: B1-AR, Cell type: CHO-K1 (HitHunter)] (converted)
[4] = CHO-K1 (HitHunter) cells, read-out: Average pEC50 [Receptor subtype: B2-AR, Cell type: CHO-K1 (HitHunter)] (converted)

T2 sequence (P07550 whole entry): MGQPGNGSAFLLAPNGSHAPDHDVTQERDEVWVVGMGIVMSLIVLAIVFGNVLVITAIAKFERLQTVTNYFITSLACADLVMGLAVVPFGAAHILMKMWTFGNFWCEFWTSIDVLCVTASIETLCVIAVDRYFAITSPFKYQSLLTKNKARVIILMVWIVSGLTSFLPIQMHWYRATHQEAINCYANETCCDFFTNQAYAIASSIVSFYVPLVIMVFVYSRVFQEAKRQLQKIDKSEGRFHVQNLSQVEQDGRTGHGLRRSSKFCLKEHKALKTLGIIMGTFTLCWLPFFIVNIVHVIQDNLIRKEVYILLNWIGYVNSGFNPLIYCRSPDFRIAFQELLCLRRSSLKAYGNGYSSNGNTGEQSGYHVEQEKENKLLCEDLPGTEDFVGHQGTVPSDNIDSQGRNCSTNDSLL
T1 sequence (P08588 whole entry): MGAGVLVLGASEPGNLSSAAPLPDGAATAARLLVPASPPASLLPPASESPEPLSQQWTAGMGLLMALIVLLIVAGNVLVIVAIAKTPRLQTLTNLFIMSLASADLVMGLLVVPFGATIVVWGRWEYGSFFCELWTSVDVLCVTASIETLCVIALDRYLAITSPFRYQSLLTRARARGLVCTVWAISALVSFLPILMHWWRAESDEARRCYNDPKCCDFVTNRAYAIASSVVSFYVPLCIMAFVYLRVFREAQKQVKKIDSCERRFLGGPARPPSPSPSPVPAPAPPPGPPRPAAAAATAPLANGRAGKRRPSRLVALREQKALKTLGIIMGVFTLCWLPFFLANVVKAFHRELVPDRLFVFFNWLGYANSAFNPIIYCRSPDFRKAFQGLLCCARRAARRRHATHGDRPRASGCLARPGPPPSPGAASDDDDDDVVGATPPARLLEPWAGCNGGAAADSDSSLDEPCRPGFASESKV

SMILES	EC50 [1, 3]	EC50 [2, 4]	further results
CC(C)(C)NC[C@H](O)c1cccc2c1C(F)(F)C(=O)N2 [Compound 04-158]	0.01 to 0.1 µM	< 0.01 µM	–
CC(C)(C)NC[C@H](O)c1cccc2oc(=O)ccc12 [Compound 04-3]	> 1 µM	0.1 to 1 µM	–
Cn1ncc2cc([C@H](O)CNC(C)(C)C)ccc21 [Compound 04-50]	0.1 to 1 µM	0.01 to 0.1 µM	–
Cc1nc2cc([C@@H](O)CNC(C)(C)C)ccc2[nH]1 [Compound 04-118]	> 1 µM	> 1 µM	–
CC(C)(C)NC[C@H](O)c1cccc2c1OC(C)(C)C(=O)N2 [Compound 04-133]	< 0.01 µM	< 0.01 µM	–
CC(C)(C)NC[C@H](O)c1ccc(Cl)c2[nH]ncc12 [Compound 04-108]	< 0.01 µM	< 0.01 µM	–
CC(C)(C)NC[C@@H](O)c1cccc2oc(=O)ccc12 [Compound 04-14]	0.1 to 1 µM	< 0.01 µM	–
Cc1nc(N)c(Cl)cc1[C@@H](O)CNC(C)(C)C [Compound 02-14]	0.01 to 0.1 µM	< 0.01 µM	–
Cn1c(=O)ccc2c([C@H](O)CNC(C)(C)C)cccc21 [Compound 04-15]	> 1 µM	0.1 to 1 µM	–
CC(C)(C)NCC(O)c1ccc2ccc(C(F)(F)F)cc2[n+]1[O-] (stereo not shown) [Compound 04-137]	0.1 to 1 µM	0.01 to 0.1 µM	–
CC(C)(C)NC[C@H](O)c1ccc2[nH]cnc2c1 [Compound 04-124]	0.01 to 0.1 µM	< 0.01 µM	–
CC(C)(C)NC[C@H](O)c1cccc2[nH]nc(C#N)c12 [Compound 04-151]	< 0.01 µM	0.01 to 0.1 µM	–
CC(C)(C)NC[C@H](O)c1cnc2[nH]cnc2c1 [Compound 04-157]	0.1 to 1 µM	0.01 to 0.1 µM	–
O[C@H](CNC1(C(F)(F)F)CC1)c1cccc2cccnc12 [Compound 04-68]	> 1 µM	> 1 µM	–
CC(C)(C)NC[C@H](O)c1cccc2ccc(C(F)(F)F)nc12 [Compound 04-85]	< 0.01 µM	< 0.01 µM	–
Cc1ccc2cccc([C@@H](O)CNC(C)(C)C)c2n1 [Compound 04-88]	< 0.01 µM	< 0.01 µM	–
CC(C)(C)NC[C@H](O)c1cccc(O)n1 [Compound 02-7]	> 1 µM	> 1 µM	–
Cc1noc2ccc([C@@H](O)CNC(C)(C)C)cc12 [Compound 04-51]	> 1 µM	> 1 µM	–
CC(C)(C)NC[C@@H](O)c1cccc(O)n1 [Compound 02-8]	> 1 µM	> 1 µM	–
CC(C)(C)NC[C@@H](O)c1ccc2cccc(F)c2n1 [Compound 04-42]	0.1 to 1 µM	0.1 to 1 µM	–
CC(C)(C)NC[C@H](O)c1cccc2[nH]c3cccnc3c12 [Compound 04-119]	< 0.01 µM	< 0.01 µM	–

SMILES	EC50 [1, 3]	EC50 [2, 4]	further results
CC1(NC[C@H](O)c2cc(F)cc3[nH]ncc23)CCC1 [Compound 04-148]	< 0.01 µM	< 0.01 µM	–
COc1ccc(C[C@@H](C)NC[C@H](O)c2ccc3c(n2)NCCO3)cc1 [Compound 04-12]	0.1 to 1 µM	0.01 to 0.1 µM	–
CC(C)(C)NC[C@H](O)c1ccc(F)c2cccnc12 [Compound 04-80]	< 0.01 µM	< 0.01 µM	–
Cc1noc2ccc([C@H](O)CNC(C)(C)C)cc12 [Compound 04-52]	0.1 to 1 µM	0.01 to 0.1 µM	–
CC(C)CNC[C@H](O)c1ccc2nc[nH]c2c1 [Compound 04-140]	> 1 µM	0.1 to 1 µM	–
CC(C)NC[C@H](O)c1cccc2[nH]c(=O)ccc12 [Compound 04-152]	< 0.01 µM	< 0.01 µM	–
CC(C)CNC[C@H](O)c1cc(F)cc2[nH]ncc12 [Compound 04-146]	< 0.01 µM	< 0.01 µM	–
CC(C)(C)NC[C@H](O)c1cccc2c1CCCC(=O)N2 [Compound 04-129]	> 1 µM	0.01 to 0.1 µM	–
COc1cc([C@@H](O)CNC(C)(C)C)c2cn[nH]c2c1 [Compound 04-154]	0.1 to 1 µM	< 0.01 µM	–
CC(C)(C)NC[C@H](O)c1c(Cl)ccc2[nH]ncc12 [Compound 04-139]	> 1 µM	> 1 µM	–
CC(C)(C)NC[C@H](O)c1cccc2[nH]cnc12 [Compound 04-24]	0.01 to 0.1 µM	0.01 to 0.1 µM	–
Cc1cc2c([C@H](O)CNC(C)(C)C)cccc2[nH]c1=O [Compound 04-17]	0.1 to 1 µM	> 1 µM	–
CC(C)(C)NC[C@H](O)c1ccc2c(n1)NCCO2 [Compound 04-10]	0.01 to 0.1 µM	0.01 to 0.1 µM	–
CC(C)(C)NC[C@H](O)c1cc(F)cc2cccnc12 [Compound 04-76]	< 0.01 µM	< 0.01 µM	–
CC(C)(C)NC[C@H](O)c1ccc2[nH]c3ccccc3c2c1 [Compound 04-54]	> 1 µM	0.1 to 1 µM	–
CC(C)(C)NC[C@H](O)c1nccc2[nH]c(=O)ccc12 [Compound 04-5, (S)-5-(2-(tert-butylamino)-1-hydroxyethyl)-1,6-naphthyridin-2(1H)-one]	> 1 µM	> 1 µM	–
CC(C)(C)NC[C@H](O)c1ccc2c(n1)CCC2 [Compound 04-9]	0.1 to 1 µM	0.01 to 0.1 µM	–
CC(C)(C)NC[C@H](O)c1cccc2[nH]ncc12 [Compound 04-153]	> 1 µM	0.01 to 0.1 µM	–
CC(C)(C)NC[C@H](O)c1ccc(F)c2[nH]c3ccccc3c12 [Compound 04-122]	< 0.01 µM	< 0.01 µM	–
Cn1c(=O)ccc2c([C@@H](O)CNC(C)(C)C)cccc21 [Compound 04-2]	0.01 to 0.1 µM	< 0.01 µM	–
Cc1ccc2[nH]ncc2c1[C@@H](O)CNC(C)(C)C [Compound 04-138]	> 1 µM	0.1 to 1 µM	–

SMILES	EC50 [1, 3]	EC50 [2, 4]	further results
O[C@@H](CNC1(C(F)(F)F)CC1)c1cccc2cccnc12 [Compound 04-67]	> 1 µM	> 1 µM	–
CC(C)(C)NC[C@@H](O)c1ccc2cccc(C#N)c2n1 [Compound 04-134]	0.01 to 0.1 µM	0.1 to 1 µM	–
Cn1ncc2cc([C@@H](O)CNC(C)(C)C)ccc21 [Compound 04-49]	> 1 µM	> 1 µM	–
CC(C)(C)NC[C@@H](O)c1cccc2ccc(C(F)(F)F)nc12 [Compound 04-86]	0.1 to 1 µM	0.1 to 1 µM	–
CC(C)(C)NC[C@@H](O)c1cccc2nccnc12 [Compound 04-74]	> 1 µM	> 1 µM	–
Cc1ccnc2c([C@@H](O)CNC(C)(C)C)cccc12 [Compound 04-84]	< 0.01 µM	0.01 to 0.1 µM	–
CC(C)(C)NC[C@H](O)c1ccc2c(n1)OCCO2 [Compound 04-7]	0.01 to 0.1 µM	0.01 to 0.1 µM	–
Cc1nc(N)c(Cl)cc1[C@H](O)CNC(C)(C)C [Compound 02-9]	0.1 to 1 µM	0.01 to 0.1 µM	–
CC(C)(C)NC[C@H](O)c1cccc2nccnc12 [Compound 04-75]	< 0.01 µM	< 0.01 µM	–
CC(C)NC[C@H](O)c1cccc2[nH]c3ccccc3c12 [Compound 04-56]	< 0.01 µM	< 0.01 µM	–
Cc1noc2cccc([C@@H](O)CNC(C)(C)C)c12 [Compound 04-29]	0.1 to 1 µM	> 1 µM	–
CC(C)(C)NC[C@@H](O)c1cccc2ccc(C#N)nc12 [Compound 04-71]	0.1 to 1 µM	0.1 to 1 µM	–
CC(C)(C)NC[C@H](O)c1cccc2c1CC(=O)N2 [Compound 04-110]	> 1 µM	> 1 µM	–
CC(C)(C)NC[C@H](O)c1cccc2c1C(C)(C)C(=O)N2 [Compound 04-102]	0.1 to 1 µM	0.1 to 1 µM	–
CC(C)(C)NC[C@@H](O)c1cccc2cccnc12 [Compound 04-93]	0.1 to 1 µM	0.1 to 1 µM	–
CC(C)(C)NC[C@H](O)c1cnc(N)c(C(F)(F)F)c1 [Compound 02-2]	–	–	Average pEC50 [Receptor subtype: B1-AR; Cell type: CHO-K1 (HitHunter)] ([1]; CHO-K1 (HitHunter) cells): D (D < 6); EC50 ([1]; Table 2, cAMP HTRF, read-out: β1 EC50): > 1 µM; Average pEC50 [Receptor subtype: B2-AR; Cell type: CHO-K1 (HitHunter)] ([2]; CHO-K1 (HitHunter) cells): D (D < 6); EC50 ([2]; Table 2, cAMP HTRF, read-out: β2 EC50): > 1 µM
CC(C)(C)NC[C@H](O)c1cccc2c1C1(CC1)CN2 [Compound 04-120]	> 1 µM	0.1 to 1 µM	–
CC(C)(C)NCC(O)c1ccnc2ccccc12 (stereo not shown) [Compound 04-96]	0.01 to 0.1 µM	0.01 to 0.1 µM	–
Cc1cc([C@@H](O)CNC(C)(C)C)c2cn[nH]c2c1 [Compound 04-109]	0.01 to 0.1 µM	< 0.01 µM	–
